The values below come from US20110230424A1, “OPHTHALMIC SOLUTIONS, INCLUDING CONTACT LENS CARE AND EYE DROPS COMPRISING CARNOSINE, PREFERABLY IN COMBINATION WITH DEXPANTHENOL AND/OR HYALURONIC ACID” (priority 2008, published 2011).

For data set [1] the following is noted: phonophoresis or subconjunctival injection, cited from earlier work.
The nature of data set [2]: Stability of carnosine in contact lens care solution. Format: physicochemical. The conditions noted are these: under circumstances; carnosine utilized by bacteria and/or fungi in the solution.

For the compound `NCCC(=O)N[C@@H](Cc1cnc[nH]1)C(=O)O` [carnosine, (2S)-2-[(3-Amino-1-oxopropyl)amino]-3-(3H-imidazol-4-yl)propanoic acid], the “effectiveness of carnosine administration in itself to the eye” value in data set [1] (quickly metabolised by carnosinase in the eye) is on record as “ineffective”. Moreover, the “stability of carnosine present in the contact lens care solution” value in data set [2] is reported as “less stable than expected”. For the compound `CC(=O)NCCC(=O)N[C@@H](Cc1cnc[nH]1)C(=O)O` [N-acetylcarnosine, reference compound], in data set [1] (1% N-acetylcarnosine added to the eye), the “time within which carnosine accumulates in the aqueous humour after topical administration” value was 15 to 30 min.
